Legend:
[1] = logP determination by HPLC (EEC Directive 79/831 Annex V. A8); format: physicochemical; conditions: HPLC gradient method, acetonitrile/0.1% aqueous phosphoric acid
Procedure: The logP values were determined in accordance with EEC Directive 79/831 Annex V. A8 by HPLC (gradient method, acetonitrile/0.1% aqueous phosphoric acid).

Botrytis cinerea = test: Botrytis test (cucumber)/protective; format: in vivo; conditions: young cucumber plants, protective spray, application rate 750 g/ha, evaluation 5-6 days after inoculation
Procedure: • Botrytis test (cucumber)/protective • Solvent: 49 parts by weight of N,N-dimethylformamide • Emulsifier: 1 part by weight of alkylaryl polyglycol ether
To produce a suitable preparation of active compound, 1 part by weight of active compound is mixed with the stated amounts of solvent and emulsifier, and the concentrate is diluted with water to the desired concentration.
To test for protective activity, young cucumber plants are sprayed with the preparation of active compound at the stated application rate. One day aft er the treatment, the plants are inoculated with a spore suspension of Botrytis cinerea and then remain at 100% relative hunmdity and 20° C. for 48 h. The plants then remain at 96% relative atmospheric-humidity and a temperature of 10° C.
Evaluation is carried out 5-6 days after the inoculation. 0% means an efficacy which corresponds to that of the control, whereas an efficacy of 100% means that no infection is observed.

Row | SMILES | logP [1] | efficacy (Botrytis cinerea)
1 | C[Si](C)(C)CNc1nc2nccn2c(Cl)c1-c1c(F)cc(F)cc1F [Example 1, 5-chloro-6-(2,4,6-trifluorophenyl-)-7-trimethylsilylmethylaminoimidazo[1,2-a]pyrimidine] | 2.09 | –
2 | CC(Nc1nc2nccn2c(Cl)c1-c1c(F)cc(F)cc1F)[Si](C)(C)C (stereo not drawn) [Example 2, 5-chloro-6-(2,4,6-trifloropheny)-7-(1-trimethylsilylethylamino)imidazo[1,2-a]pyrimidine] | 2.18 | > 80%
